The results in this text go back to patent publication US20260001889A1, “COMPOSITIONS USEFUL FOR MODULATING SPLICING” (Skyhawk Therapeutics, Inc., priority 2022, published 2026).

The structures appear in SMILES notation.

The test system of test [1] is ATXN3 transcripts containing exon 4. The test is described as follows: ATXN3 Quantitative Splicing Assay (qPCR, E4E5 primers/probe). It is filed as cell-based. The note with it: Homo sapiens, SK-N-MC cells, compounds for 24 h. The essentials: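 SK-N-MC human neuroblastoma cells treated 24 h with compound from 30 μM to 0.6 nM, 24 h after plating. Lysate cDNA was run in TaqMan qPCR, with primers/probe E4E5 detecting exon 4-containing ATXN3 transcripts and E8E9 measuring total ATXN3.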

The subject of another test is total ATXN3 protein. The experiment in a line: ATXN3 Total Protein Assay (Mesoscale Discovery, SK-N-MC cells). The format is cell-based, Human. The note with it: incubation for 48 hours, MSD assay. Here is the method:
Example 35: ATXN3 Total Protein Assay
Human neuroblastoma SK-N-MC cells were seeded at 10,000 cells/well in 384 well plates one day prior to compound treatment. The concentrations of compounds were tested at appropriate doses ranging from 30 μM to 0.6 nM. After incubation for 48 hours, the cells were lysed with 25 μL of lysis buffer containing protease inhibitors, and total ATXN3 protein levels were assessed by Mesoscale Discovery (MSD) assay developed with one pair of anti-ATXN3 antibodies. The capture and detect antibodies were raised in mouse and rabbit respectively. Anti-rabbit MSD-ST antibody was used for secondary antibody.
ATXN3 recombinant protein was used for standards. The readouts were captured with 35 μL of MSD read buffer and multi-array 384-well high binding plates.

In the next test the test system is ATXN3-HiBiT protein. The test is described as follows: ATXN3 Total Protein Assay (Kelly-ATXN3-HiBiT luminescence). The format is cell-based. The note with it: Kelly-ATXN3-HiBiT cells, 48 h after addition of compound. The essentials: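 Kelly cells with homozygous C-terminal HiBiT knock-in on endogenous ATXN3, 2000 per well, dosed 24 h after seeding. HiBiT lytic luminescence read 48 h after compound; sister plate read with CellTiter-Glo for viability; fold change vs DMSO.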
On the technique in general: HiBiT is a short tag that completes a luciferase, so light tracks the accessible tagged protein.

Turning to `C[C@H](N)Cc1oc2c(NCc3ccco3)cc(C#N)nc2c1Br` [Compound 36, 2-[(S)-2-aminopropyl]-3-bromo-7-(furfurylamino)-1-oxa-4-aza-5-indenecarbonitrile], the IC50 (in test [1]; in the test on total ATXN3 protein) was 501 to 5000 nM each time. The EC50 – broadly, the midpoint of the concentration-response curve – in the test on ATXN3-HiBiT protein fell in the range of 501 to 5000 nM.
For `COC[C@H](N)Cc1oc2c(NCc3cccs3)cc(Cl)nc2c1Br` [Compound 37, 2-[(R)-2-amino-3-methoxypropyl]-3-bromo-5-chloro-7-thenylamino-1-oxa-4-azaindene], the IC50 (in test [1]; in the test on total ATXN3 protein) was 0.01 to 100 nM each time. The same compound gave a half-maximal effective concentration (EC50) in the test on ATXN3-HiBiT protein of 0.01 to 100 nM.
Turning to `C#Cc1cc(NCc2cccs2)c2oc(C[C@H](C)N)c(C)c2n1` [Compound 40, 2-[(S)-2-aminopropyl]-5-ethynyl-3-methyl-7-thenylamino-1-oxa-4-azaindene], the IC50 (in test [1]; in the test with total ATXN3 protein) was 501 to 5000 nM throughout. For the same compound, in the test with ATXN3-HiBiT protein, the EC50 fell in the range of 501 to 5000 nM.
On to `Cc1c(C[C@@H](N)[C@H](C)F)oc2c(NCc3cccs3)cc(Cl)nc12` [Compound 41, 2-[(2R,3S)-2-amino-3-fluorobutyl]-5-chloro-3-methyl-7-thenylamino-1-oxa-4-azaindene], for which the IC50 (in test [1]; with total ATXN3 protein) was 0.01 to 100 nM each time. The EC50 in the test on ATXN3-HiBiT protein was 0.01 to 100 nM.
Turning to `C[C@H](F)[C@H](N)Cc1oc2c(NCc3cccs3)cc(Cl)nc2c1Br` [Compound 43, 2-[(2R,3S)-2-amino-3-fluorobutyl]-3-bromo-5-chloro-N-(thiophen-2-ylmethyl)furo[3,2-b]pyridin-7-amine], the IC50 (in test [1]; with total ATXN3 protein) was 0.01 to 100 nM in each case. Moreover, the EC50 in the test with ATXN3-HiBiT protein lay in the range of 0.01 to 100 nM.
For `C[C@@H](F)[C@H](N)Cc1oc2c(NCc3cccs3)cc(Cl)nc2c1Br` [Compound 44, 2-[(2R,3R)-2-amino-3-fluorobutyl]-3-bromo-5-chloro-7-thenylamino-1-oxa-4-azaindene], the IC50 (in test [1]; with total ATXN3 protein) was 101 to 500 nM throughout. In the test with ATXN3-HiBiT protein, the EC50 was 101 to 500 nM.
As to `C[C@H](N)Cc1oc2c(NCc3nccs3)cc(Cl)nc2c1Br` [Compound 45, 2-[(S)-2-aminopropyl]-3-bromo-5-chloro-7-{[(1,3-thiazol-2-yl)methyl]amino}-1-oxa-4-azaindene], the IC50 (in test [1]; with total ATXN3 protein) was 101 to 500 nM in each case. Further, the concentration giving a half-maximal response (EC50) with ATXN3-HiBiT protein was 0.01 to 100 nM.
For `COC[C@H](N)Cc1oc2c(NCc3ccncc3)cc(Cl)nc2c1Br` [Compound 48, (R)-2-(2-amino-3-methoxypropyl)-3-bromo-5-chloro-N-(pyridin-4-ylmethyl)furo[3,2-b]pyridin-7-amine], the IC50 (in test [1]; in the test on total ATXN3 protein) was 101 to 500 nM in each case. The EC50 in the test with ATXN3-HiBiT protein was in the range of 101 to 500 nM.
For `COC[C@H](N)Cc1oc2c(NCc3cccs3)cc(Cl)nc2c1Cl` [Compound 50, 2-[(R)-2-amino-3-methoxypropyl]-3,5-dichloro-7-thenylamino-1-oxa-4-azaindene], the IC50 (in test [1]; in the test with total ATXN3 protein) was 0.01 to 100 nM throughout. Further, the EC50 with ATXN3-HiBiT protein lay in the range of 0.01 to 100 nM.
For the compound `COC[C@H](N)Cc1oc2c(NCc3ccccc3)cc(Cl)nc2c1Cl` [Compound 51, 2-[(R)-2-amino-3-methoxypropyl]-7-benzylamino-3,5-dichloro-1-oxa-4-azaindene], the IC50 (in test [1]; in the test on total ATXN3 protein) was 101 to 500 nM throughout. The compound further had an EC50 with ATXN3-HiBiT protein of 101 to 500 nM.
Take `COC[C@H](N)Cc1oc2c(NCc3ccco3)cc(Cl)nc2c1Cl` [Compound 52, 2-[(R)-2-amino-3-methoxypropyl]-3,5-dichloro-7-(furfurylamino)-1-oxa-4-azaindene]: the IC50 (commonly the midpoint of a concentration-inhibition curve) in test [1] was 0.01 to 100 nM; in the test with total ATXN3 protein it was 101 to 500 nM. The EC50 in the test with ATXN3-HiBiT protein was in the range of 0.01 to 100 nM.
In the case of `COC[C@H](N)Cc1oc2c(NCc3nccs3)cc(Cl)nc2c1Cl` [Compound 53, 2-[(R)-2-amino-3-methoxypropyl]-3,5-dichloro-7-{[(1,3-thiazol-2-yl)methyl]amino}-1-oxa-4-azaindene], the 50% inhibitory concentration (IC50) (in test [1]; with total ATXN3 protein) was 101 to 500 nM each time. Further, in the test on ATXN3-HiBiT protein, the EC50 fell in the range of 101 to 500 nM.
As for `C[C@H](N)Cc1oc2c(NCc3nccs3)cc(Cl)nc2c1Cl` [Compound 57, 2-[(S)-2-aminopropyl]-3,5-dichloro-7-{[(1,3-thiazol-2-yl)methyl]amino}-1-oxa-4-azaindene], the IC50 (in test [1]; in the test on total ATXN3 protein) was 101 to 500 nM in each case. The same compound returned an EC50 with ATXN3-HiBiT protein of 101 to 500 nM.
Turning to `N[C@@H](CF)Cc1oc2c(NCc3cccs3)cc(Cl)nc2c1Br` [Compound 58, 2-[(R)-2-amino-3-fluoropropyl]-3-bromo-5-chloro-7-thenylamino-1-oxa-4-azaindene], the IC50 (in test [1]; with total ATXN3 protein) was 0.01 to 100 nM each time. This compound gave an EC50 with ATXN3-HiBiT protein of 0.01 to 100 nM.
For `Cc1cc(NCc2cccs2)c2oc(C[C@@H](N)CO)c(Br)c2n1` [Compound 59, (R)-2-amino-3-(3-bromo-5-methyl-7-thenylamino-1-oxa-4-aza-2-indenyl)-1-propanol], the IC50 (in test [1]; in the test on total ATXN3 protein) was 101 to 500 nM throughout. In addition, the EC50 with ATXN3-HiBiT protein lay within 0.01 to 100 nM.
Take `N#Cc1cc(NCc2cccs2)c2oc(C[C@@H](N)CO)c(Br)c2n1` [Compound 60, 2-[(R)-2-amino-3-hydroxypropyl]-3-bromo-7-thenylamino-1-oxa-4-aza-5-indenecarbonitrile]: the IC50 (in test [1]; with total ATXN3 protein) was 101 to 500 nM throughout. This compound gave a concentration for a half-maximal effect (EC50) in the test with ATXN3-HiBiT protein of 101 to 500 nM.
Turning to `C#Cc1c(C[C@@H](N)COC)oc2c(NCc3cccs3)cc(Cl)nc12` [Compound 61, 2-[(R)-2-amino-3-methoxypropyl]-5-chloro-3-ethynyl-7-thenylamino-1-oxa-4-azaindene], the concentration for half-maximal inhibition (IC50) (in test [1]; with total ATXN3 protein) was 0.01 to 100 nM throughout. Besides, in the test on ATXN3-HiBiT protein, the EC50 lay within 0.01 to 100 nM.
Consider `C#Cc1c(C[C@H](C)N)oc2c(NCc3nccs3)cc(Cl)nc12` [Compound 62, 2-[(S)-2-aminopropyl]-5-chloro-3-ethynyl-7-{[(1,3-thiazol-2-yl)methyl]amino}-1-oxa-4-azaindene], for which the IC50 (in test [1]; in the test with total ATXN3 protein) was 101 to 500 nM each time. Moreover, the EC50 in the test on ATXN3-HiBiT protein lay in the range of 0.01 to 100 nM.
As for `C#Cc1c(C[C@H](C)N)oc2c(NCc3cccs3)cc(Cl)nc12` [Compound 63, 2-[(2S)-2-aminopropyl]-5-chloro-3-ethynyl-N-(thiophen-2-ylmethyl)furo[3,2-b]pyridin-7-amine], the IC50 (in test [1]; with total ATXN3 protein) was 0.01 to 100 nM each time. Besides, the EC50 in the test with ATXN3-HiBiT protein lay within 0.01 to 100 nM.
Consider `C#Cc1c(C[C@H](C)N)oc2c(NCc3ccco3)cc(Cl)nc12` [Compound 64, 2-[(S)-2-aminopropyl]-5-chloro-3-ethynyl-7-(furfurylamino)-1-oxa-4-azaindene], for which the concentration for half-maximal inhibition (IC50) (in test [1]; in the test with total ATXN3 protein) was 0.01 to 100 nM each time. In addition, in the test with ATXN3-HiBiT protein, the EC50 is 0.01 to 100 nM.
For the compound `C#Cc1c(C[C@@H](N)COC)oc2c(NCc3nccs3)cc(Cl)nc12` [Compound 65, 2-[(R)-2-amino-3-methoxypropyl]-5-chloro-3-ethynyl-7-{[(1,3-thiazol-2-yl)methyl]amino}-1-oxa-4-azaindene], the IC50 (in test [1]; in the test with total ATXN3 protein) was 101 to 500 nM in each case. Further, in the test with ATXN3-HiBiT protein, the EC50 fell in the range of 101 to 500 nM.
On to `C#Cc1c(C[C@@H](N)COC)oc2c(NCc3ccco3)cc(Cl)nc12` [Compound 66, 2-[(R)-2-amino-3-methoxypropyl]-5-chloro-3-ethynyl-7-(furfurylamino)-1-oxa-4-azaindene], for which the half-inhibitory concentration (IC50) (in test [1]; in the test with total ATXN3 protein) was 0.01 to 100 nM in each case. This compound displayed an EC50 with ATXN3-HiBiT protein of 0.01 to 100 nM.
